These results are taken from patent US9510598B2, “Nitrogen-containing heterocyclic compounds for plant disease control” (BAYER CROPSCIENCE AG, priority 2012, dated 2016).

One data set relates to Septoria tritici. The data set is described as follows: In vivo preventive test on Septoria tritici (leaf spot on wheat). As to conditions: 500 ppm; wheat plants sprayed 24 hours before contamination; grading 21 to 28 days after contamination vs control plants. An outline of the steps:
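Scipion wheat at 1-leaf stage sprayed with compound, controls receiving acetone/tween/DMSO/water vehicle; 24 h later leaves inoculated with Septoria tritici spores (500 000 spores per ml). Efficacy (%) graded versus control plants 21 to 28 days after contamination.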

A further data set relates to Sphaerotheca fuliginea. Put plainly: In vivo preventive test on Sphaerotheca fuliginea (powdery mildew on cucurbits). Particulars: 500 ppm; gherkin plants sprayed 24 hours before contamination; grading 12 days after contamination vs control plants. As to the method: Gherkin plants (“Vert petit de Paris” variety), sown in starter cups on a 50/50 peat soil-pozzolana substrate and grown at 24° C., are treated at the Z11 cotyledon stage by spraying with the active ingredient prepared as described above. Plants, used as controls, are treated with the mixture of acetone/tween/DMSO/water not containing the active material. After 24 hours, the plants are contaminated by spraying the cotyledons with an aqueous suspension of Sphaerotheca fuliginea spores (100 000 spores per ml). The spores are collected from infected plants. […] Grading (% of efficacy) is carried out 12 days after the contamination, in comparison with the control plants.

The format of data set [1] is physicochemical.
A further data set relates to Botrytis cinerea. The data set is described as follows: In vivo preventive test on Botrytis cinerea (grey mould). Particulars: 500 ppm; gherkin plants sprayed 24 hours before contamination; grading 4-5 days after contamination vs control plants. As to the method: Gherkin plants (“Vert petit de Paris” variety), sown in starter cups on a 50/50 peat soil-pozzolana substrate and grown at 24° C., are treated at the Z11 cotyledon stage by spraying with the active ingredient prepared as described above. Plants, used as controls, are treated with the mixture of acetone/tween/DMSO/water not containing the active material. After 24 hours, the plants are contaminated by spraying the cotyledons with an aqueous suspension of cryopreserved Botrytis cinerea spores (50 000 spores per ml). The spores are suspended in a nutrient solution composed of 10 g/L of PDB, 50 g/L of D-Fructose, 2 g/L of NH4NO3 and 1 g/L of KH2PO4. The contaminated gherkin plants are incubated at 17° C. and at 80% relative humidity. Grading (% of efficacy) is carried out 4-5 days after the contamination, in comparison with the control plants.

Setting [2] is: method [a]: HPLC/LC-MS on reversed phase at pH 2.7, 0.1% formic acid in water / acetonitrile, gradient 10% to 95% acetonitrile.
Setting [3] is: HPLC on reversed phase columns, method [a]: pH 2.7, 0.1% formic acid in water / acetonitrile, linear gradient 10% to 95% acetonitrile.

Where two headings read alike, the source gives them in different places.

`CC1COCCC1NC(=O)C1(C)CC(c2ccc3ncc(Br)cc3c2)=NO1` (mixture of isomers) [compound 309]: the “% of efficacy (protection)” value with Septoria tritici is on record as 86%; with Sphaerotheca fuliginea it was 100%.

For `CCOCC(C)NC(=O)C1(C)CC(c2ccc3ncc(Br)cc3c2)=NO1` (mixture of isomers) [compound 374], the “% of efficacy (protection)” value in the data set on Septoria tritici and in the data set with Sphaerotheca fuliginea was 100% in each case.

In the case of `C#Cc1cnc2ccc(C3=NOC(C)(C(=O)NC(C)CC(=O)OCC)C3)cc2c1` (mixture of isomers) [compound 453], in data set [1] (setting [2]), the “log P” value was 2.57[a]. Also, in the data set on Sphaerotheca fuliginea, the “% of efficacy (protection)” value is 88%.

On to `CSc1cnc2ccc(C3=NOC(C)(C(=O)NC(C)C)C3)cc2c1` (stereo not shown) [compound 80], for which, in data set [1] (method [a]: HPLC/LC-MS on reversed phase at pH 2.7, 0.1% formic acid in water / acetonitrile, linear gradient 10% to 95% acetonitrile), the “log P” value is 2.44^[a]. Also, in the data set with Sphaerotheca fuliginea, the “% of efficacy (protection)” value came out at 93%.

For `CCSc1cnc2ccc(C3=NOC(C)(C(=O)NC(C)C)C3)cc2c1` (stereo not shown) [compound 277], the “log P” value in data set [1] (setting [3]) was 2.81[a]. Also, the “% of efficacy (protection)” value in the data set with Sphaerotheca fuliginea is 71%.

Regarding `C#Cc1cnc2ccc(C3=NOC(C)(C(=S)NCc4cnc(C)cn4)C3)cc2c1` (stereo not shown) [compound 481], the “log P” value in data set [1] (setting [2]) is 2.84[a]. The “% of efficacy (protection)” value came to 97% with Botrytis cinerea and 86% in the data set with Septoria tritici.

With `CC1(C(=O)NCC(F)(F)F)CC(c2ccc3ncc(Br)cc3c2)=NO1` (stereo not shown) [compound 493], the “log P” value in data set [1] (setting [2]) was 2.84[a]. Further, the “% of efficacy (protection)” value is listed as 100% in the data set with Botrytis cinerea and 97% in the data set with Septoria tritici.

Take `CCC1(C(=O)NC2CCC2)CC(c2ccc3ncc(Br)cc3c2)=NO1` (stereo not shown) [compound 498]: the “log P” value in data set [1] (setting [2]) is 3.31[a]. In addition, the “% of efficacy (protection)” value with Botrytis cinerea came to 92%; in the data set with Septoria tritici, 71%.

For `C#Cc1cnc2ccc(C3=NOC(C)(C(=O)NC4CCOCC4)C3)cc2c1` (stereo not shown) [compound 502], in data set [1] (setting [2]), the “log P” value was 2.01[a]. In addition, the entries for the “% of efficacy (protection)” value with Botrytis cinerea and in the data set on Septoria tritici were 98% and 100%, respectively.

As for `C#Cc1cnc2ccc(C3=NOC(C)(C(=O)NC(C)(C#N)C4CC4)C3)cc2c1` (stereo not shown) [compound 523], the “log P” value in data set [1] (setting [3]) is 2.75[a]. In addition, the “% of efficacy (protection)” value is 73% with Botrytis cinerea and 97% with Septoria tritici.

Turning to `C#Cc1cnc2ccc(C3=NOC(C)(C(=O)NC(C)c4ccc(Cl)nc4)C3)cc2c1` (stereo not shown) [compound 525], in data set [1] (setting [3]), the “log P” value was 2.68[a]. In addition, the “% of efficacy (protection)” value is reported as 100% in the data set with Botrytis cinerea and 93% with Septoria tritici.

Regarding `CCNC(=O)C1(C)CC(c2ccc3ncc(Br)cc3c2)=NO1` (stereo not shown) [compound 528], the “log P” value in data set [1] (setting [3]) was 2.39[a]. Also, the “% of efficacy (protection)” value came out at 99% in the data set on Botrytis cinerea and 97% with Septoria tritici.

On to `C#Cc1cnc2ccc(C3=NOC(C)(C(=O)Nc4cn(CC)nc4C)C3)cc2c1` (stereo not shown) [compound 529], for which the “log P” value in data set [1] (setting [3]) is 2.26[a]. For the same compound, the “% of efficacy (protection)” value in the data set with Botrytis cinerea and with Septoria tritici was 100% each time.

In the case of `Cc1cnc(CNC(=O)C2(C)CC(c3cc(C)c4ncc(Br)cc4c3)=NO2)cn1` (stereo not shown) [compound 537], the “log P” value in data set [1] (setting [3]) was 2.84[a]. In addition, the “% of efficacy (protection)” value with Botrytis cinerea and in the data set with Septoria tritici was 100% each time.

As for `CC1(C(=O)NC2CCC2)CC(c2cc(Cl)c3ncc(Br)cc3c2)=NO1` (stereo not shown) [compound 539], in data set [1] (setting [3]), the “log P” value was 3.48[a]. In addition, the “% of efficacy (protection)” value is 100% in the data set on Botrytis cinerea and 83% in the data set on Septoria tritici.

Regarding `CCOCCCNC(=O)C1(C)CC(c2cc(Cl)c3ncc(Br)cc3c2)=NO1` (stereo not shown) [compound 542], the “log P” value in data set [1] (setting [3]) is 3.25[a]. Further, the results for the “% of efficacy (protection)” value with Botrytis cinerea and in the data set on Septoria tritici were 100% and 83%, respectively.

`CCOCCCNC(=O)C1(OC)CC(c2cc(C)c3ncc(Br)cc3c2)=NO1` (stereo not shown) [compound 597]: the “log P” value in data set [1] (setting [3]) is 3.39[a]. The “% of efficacy (protection)” value with Botrytis cinerea and in the data set on Septoria tritici was 100% each time.

Regarding `CCOCCCNC(=O)C1(C(F)F)CC(c2ccc3ncc(I)cc3c2)=NO1` (stereo not shown) [compound 619], the “log P” value in data set [1] (setting [3]) was 3.19[a]. The “% of efficacy (protection)” value is given as 73% with Botrytis cinerea and 71% in the data set with Septoria tritici.
